# Columns and labels:
# [1] = tested on: homozygous A122T/A122T lines; assay: field phytotoxicity trial North Dakota 2006 (Example 3); type: in vivo, sunflower; conditions: 200 g ai/ha of imazamox, 21 DAT
# Protocol: (§1) • Spray volume: 10 gallons per acre (GPA) (or 100 liters/ha) for backpack sprayer or 20 GPA (or 200 liters/ha) for tractor mounted boom • Growth Stage at Herbicide Application: 2-4 leaves • Entry 15 (WT Maintainer line) was left unsprayed in all treatment blocks.
# (§2) Phytotoxicity ratings were assessed at 7 and 21 days following herbicide application.
# (§3) The data was subjected to an ANOVA analysis and the means from the 3 repetitions are presented in Table 7 (phytotoxicity at 7 days post-treatment) and Table 8 (phytotoxicity at 21 days post-treatment).
# [2] = tested on: heterozygous A205V/A122T lines; assay: as above; type: in vivo, sunflower; conditions: 200 g ai/ha of imazamox, 21 DAT
# Protocol: as §1, §2, §3
# [3] = tested on: homozygous A205V/A205V lines; assay: as above; type: in vivo, sunflower; conditions: 200 g ai/ha of imazamox, 21 DAT
# Protocol: as §1, §2, §3
# [4] = tested on: AHAS enzyme of WT line (B7); assay: AHAS enzyme activity assay, Sets 1 and 2; type: biochemical, sunflower; conditions: 100 μM
# Protocol: Twelve greenhouse grown sunflower plants from each of the lines depicted in Table 21 were bulked and subjected to an AHAS enzyme activity assay via the method of Singh et al. (1988) Anal. Biochem. 171:173-179. Each activity assay was repeated twice. Due to the large number of samples, the experiment was split into two sets (Table 21).
# Young, actively growing leaves, from four week old plantlets, were ground in a mortar and pestle with liquid N2 and extracted with a buffer composed of 100 mM Pyruvate, 200 mM KH2PO4, 20 mM MgCl2, 2 mM thiamine pyrophosphate and […]. Plant extracts were then spun through a 10 mL Zeba™ TM desalt spin column (Pierce #89893) as per the manufacturer's recommendation. The inhibition assay was performed as described by Singh et al. (1988) Anal. Biochem. 171:173-179. Assays were conducted in a 96-well format. Fifty μl of inhibitor was added to each well containing 50 μl of soluble protein extract to give final concentrations of 0.78, 1.56, 3.125, 6.25, 12.5, 25, 50 and 100 μM imazamox or 0.78, 1.56, 3.125, 6.25, 12.5, 25, 50 and 100 μM imazapyr. Zero herbicide controls were also included for each line. […] Absorbance was measured at 530 nm. AHAS activity, expressed as the mean of the absorbance values for each treatment, was presented as a percentage of the mean of the zero-herbicide controls.
# [5] = tested on: sunflower line B770 (conventional); assay: tolerance to imidazolinones, greenhouse (Example 8)
# [6] = tested on: sunflower hybrid H2 (L3*L4), 122/122; assay: field trial, imazapyr at V8 or R1 stage (Example 4); conditions: H2 122/122
# [7] = tested on: sunflower line HA445 (high oleic); assay: tolerance to imidazolinones, greenhouse (Example 8)
# [8] = tested on: heterozygous A205V entries; assay: field phytotoxicity trial North Dakota 2006 (Example 3); type: in vivo, sunflower; conditions: 160 g ai/ha of imazapyr, 21 DAT
# Protocol: as §1, §2, §3
# [9] = tested on: sunflower line BTK112 (conventional); assay: tolerance to imidazolinones, greenhouse (Example 8)
# [10] = tested on: sunflower hybrid H5 (L3 x WT), 122/Wild type; assay: field trial, imazapyr at V8 or R1 stage (Example 4); conditions: H5 122/Wild type
# [11] = tested on: sunflower hybrid H1 (L1*L2), 205/205; assay: as above; conditions: H1 205/205
# [12] = tested on: hybrids carrying the A205V mutation event (A205V/A205V, A205V/WT); assay: as above; conditions: 160 g ai/ha applied at R1; 14 DAT
# [13] = tested on: sunflower hybrid H6 (L1 * WT), 205/wild type; assay: as above; conditions: H6 205/wild type
# [14] = tested on: sunflower line BTI-OL-2201; assay: tolerance to imidazolinones, greenhouse (Example 8); conditions: 160 gr/ha at V4, fourteen days after treatment
# [15] = tested on: sunflower line GM40 (A122T); assay: as above; conditions: 160 gr/ha at V4, fourteen days after treatment
# [16] = tested on: sunflower line VB141 (high oleic); assay: as above
# [17] = tested on: sunflower hybrid H3 (L3*L2), 122/205; assay: field trial, imazapyr at V8 or R1 stage (Example 4); conditions: H3 122/205
# [18] = 160 gr/ha at V4, fourteen days after treatment
# [19] = 160 g ai/ha applied at R1, 14 DAT
# [20] = 160 g ai/ha applied at R1, 21 DAT
# [21] = 160 g ai/ha applied at V8, 14 DAT
# [22] = 160 g ai/ha applied at V8, 21 DAT
structure (smiles),measurement,setting,value
COCc1cnc(C2=NC(C)(C(C)C)C(=O)N2)c(C(=O)O)c1 (stereo not shown) [imazamox],phytotoxicity,[1],3-5%
same,phytotoxicity,[2],2-3%
same,phytotoxicity,[3],15-22%
same,"AHAS activity, % of untreated control",[4]; Set 1 (FIG. 13),17%
same,"AHAS activity, % of untreated control",[4]; Set 2 (FIG. 14),11%
CC(C)C1(C)N=C(c2ncccc2C(=O)O)NC1=O (stereo not shown) [imazapyr],outcome of the herbicide treatment,[5]; 160 gr/ha at V4,killed
same,Mean Phytotoxicity Index (0-9),[5]; [18],8.7
same,Mean Phytotoxicity Index (0-50),[6]; [19],2.3
same,Mean Phytotoxicity Index (0-50),[6]; [20],1.7
same,Mean Phytotoxicity Index (0-50),[6]; [21],5
same,Mean Phytotoxicity Index (0-50),[6]; [22],1
same,outcome of the herbicide treatment,[7]; 160 gr/ha at V4,killed
same,Mean Phytotoxicity Index (0-9),[7]; [18],8.8
same,phytotoxicity,[8],20-43%
same,outcome of the herbicide treatment,[9]; 160 gr/ha at V4,killed
same,Mean Phytotoxicity Index (0-9),[9]; [18],9
same,Mean Phytotoxicity Index (0-50),[10]; [19],11.7
same,Mean Phytotoxicity Index (0-50),[10]; [20],23.3
same,Mean Phytotoxicity Index (0-50),[10]; [21],15
same,Mean Phytotoxicity Index (0-50),[10]; [22],5
same,Mean Phytotoxicity Index (0-50),[11]; [19],35
same,Mean Phytotoxicity Index (0-50),[11]; [20],37.7
same,Mean Phytotoxicity Index (0-50),[11]; [21],6
same,Mean Phytotoxicity Index (0-50),[11]; [22],3
same,"PI (0-50), group with chlorosis, stunting and deformation",[12],greater than 35
same,Mean Phytotoxicity Index (0-50),[13]; [19],40
same,Mean Phytotoxicity Index (0-50),[13]; [20],48.3
same,Mean Phytotoxicity Index (0-50),[13]; [21],5
same,Mean Phytotoxicity Index (0-50),[13]; [22],5
same,Mean Phytotoxicity Index (0-9),[14],0.2
same,Mean Phytotoxicity Index (0-9),[15],0.2
same,outcome of the herbicide treatment,[16]; 160 gr/ha at V4,killed
same,Mean Phytotoxicity Index (0-9),[16]; [18],8.5
same,Mean Phytotoxicity Index (0-50),[17]; [19],4.3
same,Mean Phytotoxicity Index (0-50),[17]; [20],0.7
same,Mean Phytotoxicity Index (0-50),[17]; [21],3
same,Mean Phytotoxicity Index (0-50),[17]; [22],0
